Measurements taken from the supplement of paper PMC10307832.

How the values were obtained:
Assay in all cases: relative viability (nuclei count vs DMSO), 5 days (fraction); higher = more cells survive
BGJ398 + Luminespib = compound: CCN1CCN(c2ccc(Nc3cc(N(C)C(=O)Nc4c(Cl)c(OC)cc(OC)c4Cl)ncn3)cc2)CC1 [BGJ398] + CCNC(=O)c1noc(-c2cc(C(C)C)c(O)cc2O)c1-c1ccc(CN2CCOCC2)cc1 [Luminespib] (partner 0.01 µM)
Procedure, shortened: (§1)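 Lung cancer cell lines were pin-tool dosed in 1536-well plates on the day after seeding, with either a lone drug or a fixed anchor-drug dose plus five library-drug doses (not always all listed) in √10 steps. Nuclei were counted on 4× images after 5 days. Relative viability is the ratio of treated-well to vehicle-well nuclei counts, with each value a median of duplicate plates.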

[1] = compound: C1=CC2=NC=CN=C2C=C1/C=C/3\C(=O)NC(=O)S3 + C[C@@H](Oc1cc(-c2cnn(C3CCNCC3)c2)cnc1N)c1c(Cl)ccc(F)c1Cl [Crizotinib] (partner 1 µM)
Procedure, shortened: as §1

BGJ398 + Dasatinib = compound: CCN1CCN(c2ccc(Nc3cc(N(C)C(=O)Nc4c(Cl)c(OC)cc(OC)c4Cl)ncn3)cc2)CC1 [BGJ398] + Cc1nc(Nc2ncc(C(=O)Nc3c(C)cccc3Cl)s2)cc(N2CCN(CCO)CC2)n1 [Dasatinib] (partner 0.075 µM)
Procedure, shortened: as §1

BGJ398 + Navitoclax = compound: CCN1CCN(c2ccc(Nc3cc(N(C)C(=O)Nc4c(Cl)c(OC)cc(OC)c4Cl)ncn3)cc2)CC1 [BGJ398] + CC1(C)CCC(c2ccc(Cl)cc2)=C(CN2CCN(c3ccc(C(=O)NS(=O)(=O)c4ccc(N[C@H](CCN5CCOCC5)CSc5ccccc5)c(S(=O)(=O)C(F)(F)F)c4)cc3)CC2)C1 [Navitoclax] (partner 0.5 µM)
Procedure, shortened: as §1

Cell Line	relative viability (BGJ398 + Luminespib; first compound 0.01 µM)	relative viability (BGJ398 + Luminespib; first compound 0.03162 µM)	relative viability (BGJ398 + Luminespib; first compound 0.1 µM)	relative viability (BGJ398 + Luminespib; first compound 0.3162 µM)	relative viability (BGJ398 + Luminespib; first compound 1 µM)	relative viability ([1]; first compound 0.02 µM)	relative viability ([1]; first compound 0.06325 µM)	relative viability ([1]; first compound 0.2 µM)	relative viability ([1]; first compound 0.6325 µM)	relative viability ([1]; first compound 2 µM)	relative viability (BGJ398 + Dasatinib; first compound 0.01 µM)	relative viability (BGJ398 + Dasatinib; first compound 0.03162 µM)	relative viability (BGJ398 + Dasatinib; first compound 0.1 µM)	relative viability (BGJ398 + Dasatinib; first compound 0.3162 µM)	relative viability (BGJ398 + Dasatinib; first compound 1 µM)	relative viability (BGJ398 + Navitoclax; first compound 0.01 µM)	relative viability (BGJ398 + Navitoclax; first compound 0.03162 µM)	relative viability (BGJ398 + Navitoclax; first compound 0.1 µM)	relative viability (BGJ398 + Navitoclax; first compound 0.3162 µM)	relative viability (BGJ398 + Navitoclax; first compound 1 µM)
NCI-H2347	0.396	0.666	0.746	0.471	0.453	0.679	0.645	0.672	0.717	0.916	0.314	0.291	0.342	0.278	0.262	0.671	0.939	0.828	0.835	0.777
NCI-H2405	0.818	0.807	0.668	0.758	0.686	0.865	0.847	0.826	0.869	0.798	0.213	0.236	0.233	0.225	0.192	0.806	0.926	0.969	0.941	0.872
NCI-H3122	0.0895	0.0973	0.0991	0.0908	0.0986	0.298	0.253	0.277	0.265	0.203	0.761	0.833	0.923	0.785	0.991	0.989	1.01	1.06	0.984	1.05
PC-3 [JPC-3]	0.63		0.737	0.721	0.712	0.954	1.01	0.944	1.01	1.01	0.949		1.02	0.854	1.01	0.756		0.773	0.637	0.777
PC-14	0.151		0.119		0.134	0.821	0.954	0.869	0.972	0.864	0.294	0.0382	0.234	0.141	0.317	1.01	1.05	1.06	1.04	0.998
RERF-LC-KJ	1.23	1.25	1.32	1.26	1.31	0.547	0.927	0.864	0.837	0.753	0.655	0.933	0.753	0.858	0.819	0.98	1.09	0.901	1.06	0.936
SK-LU-1	0.215	0.193	0.189	0.188	0.197	0.913	1.3	0.985	0.903	1.07	0.173	0.19	0.142	0.153	0.13	0.832	0.988	0.865	1.02	0.908
SK-MES-1	0.8	0.784	0.843	0.799	0.844	0.965	1.11	1.02	0.981	1	0.421	0.33	0.433	0.426	0.418	1.27	1.32	1.24	1.33	1.24
SW 1573	0.323	0.242	0.209	0.226	0.278	0.729	0.816	0.825	0.831	0.742	0.439	0.668	0.466	0.462	0.574	0.82	1.22	1.05	0.981	0.91
